Source: PubChem BioAssay AID2060912 (Molecular Pharmacology Branch, DTP, NCI, 2025)

System: HUVEC/MSC spheroids viability
Assay: Human HUVEC/MSC cell line growth inhibition [KRAS2];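 on viability, T/C: percent of DMSO vehicle control luminescence so 100% = untreated viability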
Conditions: for IC50: curve of first compound; for viability, T/C: stronger effect = lower value; active means viability on the fitted dose curve at most 10% of control; inactive means the rest
Method in brief: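 The concentration series started at or near clinical Cmax (10 microM if not known) and fell in half-log increments, alone or in combination. Cells were stromal-only spheroids of pooled-donor HUVEC and hMSC (passage </=5), with different drug plates and layout from the tumor spheroid screens.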

CC(=O)OC12COC1CC(O)C1(C)C(=O)C(O)C3=C(C)C(OC(=O)C(O)C(NC(=O)OC(C)(C)C)c4ccccc4)CC(O)(C(OC(=O)c4ccccc4)C21)C3(C)C (configuration not stated) + COc1cc2nc(C)nc(NC(C)c3cc(N)cc(C(F)(F)F)c3)c2cc1OC1CCOC1
< 9.49 nM: IC50 (second compound 0.0316 µM) | IC50 (second compound 0.316 µM) | IC50 (second compound 1 µM)
> 3000 nM: IC50 (second compound 0.1 µM) | IC50 (second compound 3.16 µM)
inactive: viability, T/C (second compound 0.0316 µM, first compound 0.00949 µM) 47.1% | viability, T/C (second compound 0.0316 µM, first compound 0.03 µM) 55.3% | viability, T/C (second compound 0.0316 µM, first compound 0.0949 µM) 53% | viability, T/C (second compound 0.0316 µM, first compound 0.3 µM) 36.7% | viability, T/C (second compound 0.0316 µM, first compound 0.949 µM) 51.9% | viability, T/C (second compound 0.0316 µM, first compound 3 µM) 60.4% | viability, T/C (second compound 0.1 µM, first compound 0.00949 µM) 50.7% | viability, T/C (second compound 0.1 µM, first compound 0.03 µM) 57% | viability, T/C (second compound 0.1 µM, first compound 0.0949 µM) 54% | viability, T/C (second compound 0.1 µM, first compound 0.3 µM) 44% | viability, T/C (second compound 0.1 µM, first compound 0.949 µM) 54.7% | viability, T/C (second compound 0.1 µM, first compound 3 µM) 61.5% | viability, T/C (second compound 0.316 µM, first compound 0.00949 µM) 45.5% | viability, T/C (second compound 0.316 µM, first compound 0.03 µM) 44.4% | viability, T/C (second compound 0.316 µM, first compound 0.0949 µM) 44.8% | viability, T/C (second compound 0.316 µM, first compound 0.3 µM) 49.3% | viability, T/C (second compound 0.316 µM, first compound 0.949 µM) 47.5% | viability, T/C (second compound 0.316 µM, first compound 3 µM) 57.1% | viability, T/C (second compound 1 µM, first compound 0.00949 µM) 45.5% | viability, T/C (second compound 1 µM, first compound 0.03 µM) 47.8% | viability, T/C (second compound 1 µM, first compound 0.0949 µM) 37.2% | viability, T/C (second compound 1 µM, first compound 0.3 µM) 57.1% | viability, T/C (second compound 1 µM, first compound 0.949 µM) 63.6% | viability, T/C (second compound 1 µM, first compound 3 µM) 47.9% | viability, T/C (second compound 3.16 µM, first compound 0.00949 µM) 51.5% | viability, T/C (second compound 3.16 µM, first compound 0.03 µM) 48.3% | viability, T/C (second compound 3.16 µM, first compound 0.0949 µM) 58.6% | viability, T/C (second compound 3.16 µM, first compound 0.3 µM) 48.1% | viability, T/C (second compound 3.16 µM, first compound 0.949 µM) 58.3% | viability, T/C (second compound 3.16 µM, first compound 3 µM) 50.6% | viability, T/C (second compound 10 µM, first compound 0.00949 µM) 52.4% | viability, T/C (second compound 10 µM, first compound 0.03 µM) 71.7% | viability, T/C (second compound 10 µM, first compound 0.0949 µM) 59.2% | viability, T/C (second compound 10 µM, first compound 0.3 µM) 58.1% | viability, T/C (second compound 10 µM, first compound 0.949 µM) 59.8% | viability, T/C (second compound 10 µM, first compound 3 µM) 49.3%
2770 nM: IC50 (second compound 10 µM)
